Laboratory results from publication PMC9697031, “Identification of Novel Diarylpyrimidines as Potent HIV-1 Non-Nucleoside Reverse Transcriptase Inhibitors by Exploring the Primer Grip Region” (Pharmaceuticals, 2022).
Read-outs that look alike come from different tables or passages of the source.

Key:
[1] = tested on: WT HIV-1 strain (IIIB); design: method as in PMID 35061384; details: MT-4 cells, WT HIV-1 IIIB; used for comparison ref 5; cited from earlier work
[2] = tested on: HIV-1 Y181C mutant strain; assay: Anti-HIV-1 mutant strain Y181C in MT-4 cells, MTT method; assay type: cell-based; details: Human immunodeficiency virus 1, MT4, read-out: EC50 Y181C
Procedure: (§2) Evaluation of the anti-HIV activity and cytotoxicity of the target compounds was performed by utilizing the MTT method in MT-4 cells described previously [37]. Stock solutions (10 × final concentration) of test compounds were added in 25 μL volumes to two series of triplicate wells to allow simultaneous evaluation of their effects on mock- and HIV-infected cells at the beginning of each experiment. Serial five-fold dilutions of test compounds were prepared directly in flat-bottomed 96-well microtiter trays by adding 100 μL medium to the 25 μL stock solution and transferring 25 μL of this solution to another well that contained 100 μL medium using a Biomek 3000 robot (Beckman Instruments, Fullerton, CA). Each sample includes untreated control HIV- and mock-infected cell samples. WT HIV-1 strain (IIIB), HIV-1 drug-resistant strains including L100I, K103N, Y181C, Y188L, E138K, K103N/Y181C, F227L/V106A or HIV-2 strain (ROD) stock (50 μL) at 100–300 CCID50 (50% cell culture infectious dose) or culture medium was added to either the infected or mock-infected wells of the microtiter tray. Mock-infected cells were used to evaluate the effect of test compounds on uninfected cells to evaluate their cytotoxicity. Exponentially growing MT-4 cells were centrifuged for 5 min at 1000 rpm, and the supernatant was discarded. […] After infection five days, the viability of mock- and HIV-infected cells was examined spectrophotometrically by the MTT assay.

[3] = tested on: HIV-1 RES056 (K103N/Y181C) mutant strain; assay: Anti-HIV-1 double mutant RES056 in MT-4 cells, MTT method; assay type: cell-based; details: Human immunodeficiency virus 1, MT4, read-out: EC50 RES056
Procedure: as §2

[4] = tested on: HIV-1 Y188L mutant strain; assay: Anti-HIV-1 mutant strain Y188L in MT-4 cells, MTT method; assay type: cell-based; details: Human immunodeficiency virus 1, MT4, read-out: EC50 Y188L
Procedure: as §2

[5] = tested on: HIV-1 E138K mutant strain; assay: Anti-HIV-1 mutant strain E138K in MT-4 cells, MTT method; assay type: cell-based; details: Human immunodeficiency virus 1, MT4, read-out: EC50 E138K
Procedure: as §2

[6] = in vitro; details: human
Procedure: (§1) Stock solutions (10 × final concentration) of test compounds were added in 25 μL volumes to two series of triplicate wells to allow simultaneous evaluation of their effects on mock- and HIV-infected cells at the beginning of each experiment.

[7] = tested on: HIV-1 F227L + V106A mutant strain; assay: Anti-HIV-1 double mutant F227L + V106A in MT-4 cells, MTT method; assay type: cell-based; details: Human immunodeficiency virus 1, MT4, read-out: EC50 F227L + V106A
Procedure: as §2

[8] = tested on: HIV-2 strain (ROD); assay: Anti-HIV-2 (ROD) activity in MT-4 cells, MTT method; assay type: cell-based; details: Human immunodeficiency virus 2, MT4, read-out: EC50 ROD
Procedure: as §1

[9] = tested on: WT HIV-1 strain (IIIB); assay: Anti-HIV-1 (IIIB, wild-type) activity in MT-4 cells, MTT method; assay type: cell-based; details: for SI (IIIB): selectivity index, CC50/EC50 (IIIB)
Procedure: as §1

[10] = tested on: HIV-1 L100I mutant strain; assay: Anti-HIV-1 mutant strain L100I in MT-4 cells, MTT method; assay type: cell-based; details: Human immunodeficiency virus 1, MT4, read-out: EC50 L100I
Procedure: as §2

[11] = tested on: HIV-1 K103N mutant strain; assay: microbe, parasite or virus in culture; assay type: cell-based; details: for EC50: Human immunodeficiency virus 1, MT4, read-out: EC50 K103N; for Resistance Folds K103N: RF, EC50 (K103N)/EC50 (WT)
Procedure: as §1

[12] = target: T1, HIV-1 WT RT (Human immunodeficiency virus type 1 group M subtype B, UniProt P04585); assay: HIV-1 RT inhibition assay (Roche kit, ELISA); assay type: biochemical
T1 construct: The RT is a heterodimer consisting of two subunits, p66 (560 residues) and p51 (440 residues); purchased Roche
Procedure: An HIV-1 reverse transcriptase (RT) assay kit produced by Roche was used for the RT inhibition assay. All the reagents for performing the RT reaction came from the kit, and the ELSIA procedures for RT inhibition assay were conducted following the description in the kit protocol [38]. […] Then used, a washing buffer was used to remove the unbound dNTPs, and an anti-DIG-POD working solution was added. […] The unbound anti-DIG-PODs were removed, and the peroxidesubstrate (ABST) solution was added to the MTPs. A colored reaction proceeds during the cleavage of the substrate catalyzed by POD. […] The percentage inhibitory activity of RT inhibitors was calculated by the formula given below: % Inhibition = [O.D. value with RT but without inhibitors − O.D. value with RT and inhibitors]/[O.D. value with RT and inhibitors − O.D. value without RT and inhibitors].

[13] = target: T1, HIV-1 WT RT; design: method as in PMID 35061384; details: incorporation of biotin-dUTP; used for comparison ref 5; cited from earlier work
[14] = Human immunodeficiency virus 1, IIIB, MT4, read-out: EC50 IIIB, MT-4 cells, WT HIV-1 IIIB, MTT

Row | Structure (SMILES) | EC50 [1] | EC50 [2] | EC50 [3] | EC50 [4] | EC50 [5] | CC50 at 5 days [6] | EC50 [7] | EC50 [8] | EC50 [9, 14] | SI (IIIB) [9] | EC50 [10] | EC50 [11] | Resistance Folds K103N [11] | IC50 [12] | melting point | IC50 [13] | EC50 ([9]; read-out: EC50 IIIB, MT-4 cells, WT HIV-1 IIIB, MTT)
1 | Cc1cc(/C=C/C#N)cc(C)c1Nc1ccnc(Nc2ccc(C#N)cc2)n1 [RPV, rilpivirine] | 1 ± 0.27 nM |  |  |  |  |  |  |  |  |  |  |  |  |  |  |  | 
2 | COc1cccc(OCc2cc(C)c(Oc3ccnc(Nc4ccc(C#N)cc4)n3)c(C)c2)c1 [TF6, 4-((4-(4-((3-methoxyphenoxy)methyl)-2,6-dimethylphenoxy)pyrimidin-2-yl)amino)benzonitrile] |  | 387 ± 87.4 nM | > 6900 nM | 1390 ± 83.6 nM | 149.7 ± 0.7 nM | 6900 ± 249 nM | 1100 ± 281 nM | > 6900 nM | 35.3 ± 4.1 nM | 195.6 | 156 ± 16.8 nM | 91.2 ± 14.4 nM | 2.60 | 52 ± 4 nM | 149 to 152 °C |  | 
3 | Cc1cc(COc2cccnc2C#N)cc(C)c1Oc1ccnc(Nc2ccc(C#N)cc2)n1 [TF12, 3-((4-((2-((4-cyanophenyl)amino)pyrimidin-4-yl)oxy)-3,5-dimethylbenzyl)oxy) picolinonitrile] |  | 384 ± 75.5 nM | > 2460 nM | ≥ 1560 nM | 46.2 ± 7.1 nM | 2460 ± 198 nM | 742 ± 145 nM | > 2460 nM | 7.8 ± 0.8 nM | 316.9 | 246 ± 54.6 nM | 34.7 ± 8.8 nM | 4.49 | 38 ± 4 nM | 245 to 248 °C |  | 
4 | Cc1cc(C#N)cc(C)c1Oc1nc(Nc2ccc(C#N)cc2)nc(N)c1Br [ETR, etravirine, reference compound] |  | 11.1 ± 1.3 nM | 29.5 ± 4.8 nM | 18.1 ± 3.2 nM | 6.3 ± 1.2 nM | > 4590 nM | 20.4 ± 7.8 nM |  | 3 nM | >1578.9 | 5.9 ± 1 nM | 3 ± 0.3 nM |  |  |  | 11 nM | 2.9 ± 0.4 nM
5 | Cc1cc(COc2ccc(C#N)cc2)cc(C)c1Oc1ccnc(Nc2ccc(C#N)cc2)n1 [TF2, 4-((4-(4-((4-cyanophenoxy)methyl)-2,6-dimethylphenoxy)pyrimidin-2-yl)amino) benzonitrile] |  | 139 ± 34.9 nM | > 279000 nM | 1390 ± 119 nM | 44 ± 2.9 nM | > 279000 nM | 1140 ± 346 nM | > 279000 nM | 7.6 ± 0.6 nM | >36,610.9 | 117 ± 49.5 nM | 28.1 ± 7.1 nM | 3.68 | 55 ± 1 nM | 202 to 205 °C |  | 
6 | Cc1cc(COc2ccc(NC(=O)OC(C)(C)C)cc2)cc(C)c1Oc1ccnc(Nc2ccc(C#N)cc2)n1 [TF16, (4-((4-((2-((4-cyanophenyl)amino)pyrimidin-4-yl)oxy)-3,5-dimethylbenzyl)oxy)phenyl)carbamic acid tert-butyl ester] |  | 1270 ± 154 nM | > 6200 nM | > 6200 nM | 246 ± 30.4 nM | 6200 ± 220 nM | ≥ 1620 nM | > 6200 nM | 45.3 ± 14.1 nM | 136.7 | 715 ± 184 nM | 132 ± 28.4 nM | 2.93 | 160 ± 1 nM | 184 to 187 °C |  | 
7 | Cc1cc(COc2ccc(F)nc2)cc(C)c1Oc1ccnc(Nc2ccc(C#N)cc2)n1 [TF14, 4-((4-(4-(((6-fluoropyridin-3-yl)oxy)methyl)-2,6-dimethylphenoxy)pyrimidin-2-yl)amino)benzonitrile] |  | 286 ± 52.1 nM | 1190 ± 182 nM | 774 ± 39.2 nM | 67.4 ± 8.1 nM | 24400 nM | 999 ± 126 nM | > 24400 nM | 23.6 ± 3.8 nM | 1034.6 | 185 ± 11.6 nM | 36.7 ± 3.7 nM | 1.54 | 41 ± 3 nM | 185 to 188 °C |  | 
8 | Cc1cc(COc2ccc(CO)cc2)cc(C)c1Oc1ccnc(Nc2ccc(C#N)cc2)n1 [TF8, 4-((4-(4-((4-(hydroxymethyl)phenoxy)methyl)-2,6-dimethylphenoxy)pyrimidin-2-yl)amino)benzonitrile] |  | 667 ± 78 nM | 1419 ± 9.7 nM | 886 ± 20.1 nM | 148 ± 4.6 nM | 2920 ± 272 nM | 853 ± 81.4 nM | > 2920 nM | 42.8 ± 5.6 nM | 68.1 | 329 ± 56.7 nM | 110 ± 4.6 nM | 2.56 | 41 ± 1 nM | 209 to 212 °C |  | 
